The values below are quoted from earlier work in patent US20020020828A1, “Non-toxic ethylene glycol-based antifreeze/heat transfer fluid concentrate and antifreeze/heat transfer fluid” (priority 2000, published 2002).

The subject of the series is humans. As to conditions: ingestion.

With `OCCO` [EG, 1,2-ethandiol], the “toxic level in humans (reported as low as)” value is listed as 1,570 mg/kg.
